In paper PMC12669040, “Tumour-specific STING agonist synthesis via a two-component prodrug system” (Nature Chemistry, 2025):
Values joined by “and” are separate entries in the source; they are usually repeats but may differ in a detail not shown here. Equal values may be shown once.

Experiments:
[1] = Colorimetric alkylation rate constant assay with thiol N1; format: physicochemical; details: for remaining [A]: N1 from calibration curve (N1 in uM); for remaining [A] / remaining [B]: in µM
[2] = Colorimetric alkylation rate constant assay with TNB^2− as non-specific thiol; format: physicochemical; set-up: second-order: unit not given here; details: for remaining [B]: in µM
[3] = Time 2891 sec, [B]0 = 250, Replicates 1-3
[4] = Time 3071 sec, [B]0 = 250, Replicates 1-3
[5] = Time 3252 sec, [B]0 = 250, Replicates 1-3
[6] = Time 3433 sec, [B]0 = 250, Replicates 1-3
[7] = Time 3613 sec, [B]0 = 250, Replicates 1-3

Question: Which results are given for `O=C(CCl)Nc1ccccc1C(=O)O` [Compound C5]?
Answer: remaining [A] ([1]; Replicate 1, time 576 sec): 85.1676; remaining [B] ([1]; Replicate 1, time 576 sec, [B]0 = 250): 231.048; second-order ([1]; Replicate 1, time 576 sec, second-order plot value): 0.0008369; remaining [A] ([1]; Replicate 1, time 606 sec): 84.6546; remaining [B] ([1]; Replicate 1, time 606 sec, [B]0 = 250): 230.535; second-order ([1]; Replicate 1, time 606 sec, second-order plot value): 0.0008631; remaining [A] ([1]; Replicate 2, time 576 sec): 85.8231; remaining [B] ([1]; Replicate 2, time 576 sec, [B]0=250): 232.681; second-order ([1]; Replicate 2, time 576 sec, second-order plot value): 0.0007628; remaining [A] ([1]; Replicate 2, time 606 sec): 85.3129; remaining [B] ([1]; Replicate 2, time 606 sec, [B]0=250): 232.171; second-order ([1]; Replicate 2, time 606 sec, second-order plot value): 0.0007885; remaining [A] ([1]; Replicate 3, time 576 sec): 89.9918; remaining [B] ([1]; Replicate 3, time 576 sec, [B]0=250): 235.444; second-order ([1]; Replicate 3, time 576 sec, second-order plot value): 0.0006183; remaining [A] ([1]; Replicate 3, time 606 sec): 89.4236; remaining [B] ([1]; Replicate 3, time 606 sec, [B]0=250): 234.876; second-order ([1]; Replicate 3, time 606 sec, second-order plot value): 0.0006452; remaining [B] ([1]; time 0 sec, [B]0 = 250, replicates 1-3): 249.513 and 244.642 and 245.947; second-order ([1]; time 0 sec, replicates 1-3): 0.0001617 and 1.87e-5 and 0.0002136; remaining [B] ([1]; time 30 sec, [B]0 = 250, replicates 1-3): 248.485 and 243.217 and 245.21; second-order ([1]; time 30 sec, replicates 1-3): 0.0001921 and 5.857e-5 and 0.0002732; remaining [B] ([1]; time 60 sec, [B]0 = 250, replicates 1-3): 247.619 and 242.647 and 243.934; second-order ([1]; time 60 sec, replicates 1-3): 0.0002455 and 9.259e-5 and 0.0002974; remaining [B] ([1]; time 91 sec, [B]0 = 250, replicates 1-3): 246.645 and 241.963 and 243.197; second-order ([1]; time 91 sec, replicates 1-3): 0.0002767 and 0.0001313 and 0.0003267; remaining [B] ([1]; time 121 sec, [B]0 = 250, replicates 1-3): 245.942 and 241.222 and 242.404; second-order ([1]; time 121 sec, replicates 1-3): 0.0003108 and 0.0001597 and 0.0003587; remaining [B] ([1]; time 151 sec, [B]0 = 250, replicates 1-3): 245.265 and 240.31 and 241.667; second-order ([1]; time 151 sec, replicates 1-3): 0.0003428 and 0.0001872 and 0.0003986; remaining [B] ([1]; time 182 sec, [B]0 = 250, replicates 1-3): 244.291 and 239.712 and 241.043; second-order ([1]; time 182 sec, replicates 1-3): 0.0003702 and 0.0002272 and 0.0004251; remaining [B] ([1]; time 212 sec, [B]0 = 250, replicates 1-3): 243.723 and 239.142 and 240.505; second-order ([1]; time 212 sec, replicates 1-3): 0.000394 and 0.0002509 and 0.0004506; remaining [B] ([1]; time 242 sec, [B]0 = 250, replicates 1-3): 242.993 and 238.344 and 239.824; second-order ([1]; time 242 sec, replicates 1-3): 0.0004243 and 0.0002815 and 0.0004866; remaining [B] ([1]; time 273 sec, [B]0 = 250, replicates 1-3): 242.1 and 237.717 and 239.002; second-order ([1]; time 273 sec, replicates 1-3): 0.0004614 and 0.0003194 and 0.0005152; remaining [B] ([1]; time 303 sec, [B]0 = 250, replicates 1-3): 241.397 and 237.004 and 238.492; second-order ([1]; time 303 sec, replicates 1-3): 0.0004847 and 0.0003496 and 0.000548; remaining [B] ([1]; time 333 sec, [B]0 = 250, replicates 1-3): 240.774 and 236.377 and 237.897; second-order ([1]; time 333 sec, replicates 1-3): 0.000512 and 0.0003766 and 0.0005771; remaining [B] ([1]; time 364 sec, [B]0 = 250, replicates 1-3): 239.963 and 235.665 and 237.16; second-order ([1]; time 364 sec, replicates 1-3): 0.0005463 and 0.0004122 and 0.0006106; remaining [B] ([1]; time 394 sec, [B]0 = 250, replicates 1-3): 239.367 and 234.981 and 236.423; second-order ([1]; time 394 sec, replicates 1-3): 0.0005809 and 0.0004386 and 0.0006431; remaining [B] ([1]; time 424 sec, [B]0 = 250, replicates 1-3): 238.745 and 234.154 and 235.799; second-order ([1]; time 424 sec, replicates 1-3): 0.0006105 and 0.0004664 and 0.0006829; remaining [B] ([1]; time 454 sec, [B]0 = 250, replicates 1-3): 238.204 and 233.641 and 235.374; second-order ([1]; time 454 sec, replicates 1-3): 0.0006308 and 0.0004908 and 0.0007078; remaining [B] ([1]; time 485 sec, [B]0 = 250, replicates 1-3): 237.419 and 232.929 and 234.552; second-order ([1]; time 485 sec, replicates 1-3): 0.0006705 and 0.0005265 and 0.0007427; remaining [B] ([1]; time 515 sec, [B]0 = 250, replicates 1-3): 236.662 and 232.416 and 234.155; second-order ([1]; time 515 sec, replicates 1-3): 0.0006899 and 0.0005614 and 0.0007681; remaining [B] ([1]; time 545 sec, [B]0 = 250, replicates 1-3): 236.148 and 231.703 and 233.702; second-order ([1]; time 545 sec, replicates 1-3): 0.0007121 and 0.0005853 and 0.0008038; remaining [B] ([2]; Replicate 1, 723 sec, [B]0 = 250): 246.309; remaining [B] ([2]; Replicate 1, 903 sec, [B]0 = 250): 246.195; remaining [B] ([2]; Replicate 1, 1084 sec, [B]0 = 250): 246.107; remaining [B] ([2]; Replicate 1, 1265 sec, [B]0 = 250): 246.422; remaining [B] ([2]; Replicate 1, 1445 sec, [B]0 = 250): 246.548; remaining [B] ([2]; Replicate 1, 1626 sec, [B]0 = 250): 246.346; remaining [B] ([2]; Replicate 1, 1806 sec, [B]0 = 250): 245.931; remaining [B] ([2]; Replicate 1, 1988 sec, [B]0 = 250): 245.767; remaining [B] ([2]; Replicate 1, 2168 sec, [B]0 = 250): 245.616; remaining [B] ([2]; Replicate 1, 2349 sec, [B]0 = 250): 245.553; remaining [B] ([2]; Replicate 1, 2530 sec, [B]0 = 250): 245.464; remaining [B] ([2]; Replicate 1, 2710 sec, [B]0 = 250): 245.427; remaining [B] ([2]; Replicate 2, 542 sec, [B]0=250): 245.747; remaining [B] ([2]; Replicate 2, 723 sec, [B]0=250): 245.533; remaining [B] ([2]; Replicate 2, 903 sec, [B]0=250): 245.445; remaining [B] ([2]; Replicate 2, 1084 sec, [B]0=250): 245.382; remaining [B] ([2]; Replicate 2, 1265 sec, [B]0=250): 245.218; remaining [B] ([2]; Replicate 2, 1445 sec, [B]0=250): 245.168; remaining [B] ([2]; Replicate 2, 1626 sec, [B]0=250): 245.067; remaining [B] ([2]; Replicate 2, 1806 sec, [B]0=250): 244.991; remaining [B] ([2]; Replicate 2, 1988 sec, [B]0=250): 244.928; remaining [B] ([2]; Replicate 2, 2168 sec, [B]0=250): 244.827; remaining [B] ([2]; Replicate 2, 2349 sec, [B]0=250): 244.739; remaining [B] ([2]; Replicate 2, 2530 sec, [B]0=250): 244.676; remaining [B] ([2]; Replicate 2, 2710 sec, [B]0=250): 244.563; remaining [B] ([2]; Replicate 3, 723 sec, [B]0=250): 245.666; remaining [B] ([2]; Replicate 3, 903 sec, [B]0=250): 245.565; remaining [B] ([2]; Replicate 3, 1084 sec, [B]0=250): 245.427; remaining [B] ([2]; Replicate 3, 1265 sec, [B]0=250): 245.389; remaining [B] ([2]; Replicate 3, 1445 sec, [B]0=250): 245.313; remaining [B] ([2]; Replicate 3, 1626 sec, [B]0=250): 245.149; remaining [B] ([2]; Replicate 3, 1806 sec, [B]0=250): 245.137; remaining [B] ([2]; Replicate 3, 1988 sec, [B]0=250): 245.036; remaining [B] ([2]; Replicate 3, 2168 sec, [B]0=250): 244.986; remaining [B] ([2]; Replicate 3, 2349 sec, [B]0=250): 244.872; remaining [B] ([2]; Replicate 3, 2530 sec, [B]0=250): 244.809; remaining [B] ([2]; Replicate 3, 2710 sec, [B]0=250): 244.62; second-order [2, 3]: 0.0002299 and 0.0002236 and 0.0001928; remaining [B] [2, 3]: 244.62 and 245.338 and 244.475; second-order [2, 4]: 0.0002338 and 0.0002269 and 0.0001976; remaining [B] [2, 4]: 244.544 and 245.225 and 244.386; second-order [2, 5]: 0.0002365 and 0.0002296 and 0.0001987; remaining [B] [2, 5]: 244.481 and 245.2 and 244.323; second-order [2, 6]: 0.0002403 and 0.0002356 and 0.0002052; remaining [B] [2, 6]: 244.343 and 245.049 and 244.235; second-order [2, 7]: 0.0002452 and 0.0002384 and 0.0002063; remaining [B] [2, 7]: 244.28; second-order ([2]; Time 3794 sec, [B]0 = 250, Replicates 1-3): 0.0002474 and 0.0002417 and 0.0002117; second-order ([2]; Time 3974 sec, [B]0 = 250, Replicates 1-3): 0.0002513 and 0.0002455 and 0.0002139; second-order ([2]; Time 4155 sec, [B]0 = 250, Replicates 1-3): 0.0002546 and 0.0002504 and 0.0002193; second-order ([2]; Time 4336 sec, [B]0 = 250, Replicates 1-3): 0.000259 and 0.0002537 and 0.000222; second-order ([2]; Time 4516 sec, [B]0 = 250, Replicates 1-3): 0.0002623 and 0.0002543 and 0.0002291; second-order ([2]; Time 4697 sec, [B]0 = 250, Replicates 1-3): 0.0002656 and 0.0002598 and 0.0002275; second-order ([2]; Time 4878 sec, [B]0 = 250, Replicates 1-3): 0.0002689 and 0.0002614 and 0.0002307; second-order ([2]; Time 5058 sec, [B]0 = 250, Replicates 1-3): 0.0002728 and 0.000267 and 0.0002367; second-order ([2]; Time 5239 sec, [B]0 = 250, Replicates 1-3): 0.0002767 and 0.0002692 and 0.0002406; second-order ([2]; Time 5419 sec, [B]0 = 250, Replicates 1-3): 0.0002789 and 0.0002725 and 0.0002433; second-order ([2]; Time 5600 sec, [B]0 = 250, Replicates 1-3): 0.0002833 and 0.0002764 and 0.0002471; second-order ([2]; Time 5781 sec, [B]0 = 250, Replicates 1-3): 0.0002878 and 0.0002803 and 0.0002499; second-order ([2]; Time 5961 sec, [B]0 = 250, Replicates 1-3): 0.0002906 and 0.000283 and 0.0002554
